Results from ChEMBL document CHEMBL4619816, “GSK973 Is an Inhibitor of the Second Bromodomains (BD2s) of the Bromodomain and Extra-Terminal (BET) Family” (ACS Med Chem Lett, 2020).
Activity calls are given as the source filed them. The calls are words filed in the database; no cut-off is given here.

Key:
[1] = molecular target: Bromodomain-containing protein 8 (Homo sapiens) (UniProt Q9H0E9); assay: Inhibition of BRD8 bromodomain 2 (unknown origin) by BROMOscan assay
[2] = molecular target: ATPase family AAA domain-containing protein 2 (Homo sapiens) (UniProt Q6PL18); assay: Inhibition of human partial length ATAD2A (Q981 to R1108 residues) expressed in bacterial expression system by BROMOscan assay
Sequence of ATPase family AAA domain-containing protein 2 (Homo sapiens) (Q6PL18 whole entry, the tested form may be a part): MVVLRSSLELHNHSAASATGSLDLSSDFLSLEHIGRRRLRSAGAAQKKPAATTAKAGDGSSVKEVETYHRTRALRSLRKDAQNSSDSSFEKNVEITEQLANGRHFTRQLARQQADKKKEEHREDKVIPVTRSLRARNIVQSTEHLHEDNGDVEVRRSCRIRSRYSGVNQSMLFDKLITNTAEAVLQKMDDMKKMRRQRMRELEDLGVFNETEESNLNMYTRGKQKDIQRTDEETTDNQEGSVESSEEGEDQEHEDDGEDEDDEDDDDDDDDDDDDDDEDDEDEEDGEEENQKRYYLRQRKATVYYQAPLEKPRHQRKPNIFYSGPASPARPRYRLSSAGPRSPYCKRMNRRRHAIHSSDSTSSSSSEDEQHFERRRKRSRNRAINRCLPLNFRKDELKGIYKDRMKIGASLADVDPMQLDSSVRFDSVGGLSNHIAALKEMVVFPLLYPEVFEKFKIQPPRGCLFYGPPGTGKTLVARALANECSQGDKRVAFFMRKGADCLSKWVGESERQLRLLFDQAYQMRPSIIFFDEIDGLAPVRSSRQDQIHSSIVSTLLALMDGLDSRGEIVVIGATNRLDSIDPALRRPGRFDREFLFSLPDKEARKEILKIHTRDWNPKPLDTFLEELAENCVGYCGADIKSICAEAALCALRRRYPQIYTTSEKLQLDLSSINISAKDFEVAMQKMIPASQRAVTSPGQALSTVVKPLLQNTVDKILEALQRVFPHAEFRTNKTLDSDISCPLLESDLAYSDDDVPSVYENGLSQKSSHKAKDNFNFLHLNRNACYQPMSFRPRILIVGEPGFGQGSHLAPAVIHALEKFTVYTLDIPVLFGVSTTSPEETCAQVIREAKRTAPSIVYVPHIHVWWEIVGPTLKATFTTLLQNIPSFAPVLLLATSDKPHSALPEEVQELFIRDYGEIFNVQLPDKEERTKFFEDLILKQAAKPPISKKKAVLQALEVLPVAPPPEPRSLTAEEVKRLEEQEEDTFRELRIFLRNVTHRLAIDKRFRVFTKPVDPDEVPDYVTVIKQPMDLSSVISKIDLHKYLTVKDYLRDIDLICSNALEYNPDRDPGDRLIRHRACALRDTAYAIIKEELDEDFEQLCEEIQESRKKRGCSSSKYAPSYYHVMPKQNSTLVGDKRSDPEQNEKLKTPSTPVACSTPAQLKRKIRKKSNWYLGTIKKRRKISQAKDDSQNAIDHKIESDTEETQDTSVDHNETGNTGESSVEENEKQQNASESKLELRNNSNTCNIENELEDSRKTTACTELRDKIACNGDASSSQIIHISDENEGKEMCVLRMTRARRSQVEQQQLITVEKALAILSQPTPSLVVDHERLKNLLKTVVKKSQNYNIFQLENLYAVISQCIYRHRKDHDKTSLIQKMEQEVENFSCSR

[3] = Renal clearance in Beagle dog at 1 mg/kg, iv; type: ADME, organism-based, Canis lupus familiaris; settings: in vivo
Peregrin (Homo sapiens) = Peregrin (Homo sapiens) (UniProt P55201); assay: Inhibition of human partial length BRPF1 (E627 to G740 residues) expressed in bacterial expression system by BROMOscan assay
[4] = molecular target: Histone acetyltransferase p300 (Homo sapiens) (UniProt Q09472); assay: Inhibition of human partial length EP300 (A1040 to G1161 residues) expressed in bacterial expression system by BROMOscan assay
[5] = molecular target: Bromodomain adjacent to zinc finger domain protein 2B (Homo sapiens) (UniProt Q9UIF8); assay: Inhibition of human partial length BAZ2B (S2054 to S2168 residues) expressed in bacterial expression system by BROMOscan assay
Sequence of Bromodomain adjacent to zinc finger domain protein 2B (Homo sapiens) (Q9UIF8 whole entry, the tested form may be a part): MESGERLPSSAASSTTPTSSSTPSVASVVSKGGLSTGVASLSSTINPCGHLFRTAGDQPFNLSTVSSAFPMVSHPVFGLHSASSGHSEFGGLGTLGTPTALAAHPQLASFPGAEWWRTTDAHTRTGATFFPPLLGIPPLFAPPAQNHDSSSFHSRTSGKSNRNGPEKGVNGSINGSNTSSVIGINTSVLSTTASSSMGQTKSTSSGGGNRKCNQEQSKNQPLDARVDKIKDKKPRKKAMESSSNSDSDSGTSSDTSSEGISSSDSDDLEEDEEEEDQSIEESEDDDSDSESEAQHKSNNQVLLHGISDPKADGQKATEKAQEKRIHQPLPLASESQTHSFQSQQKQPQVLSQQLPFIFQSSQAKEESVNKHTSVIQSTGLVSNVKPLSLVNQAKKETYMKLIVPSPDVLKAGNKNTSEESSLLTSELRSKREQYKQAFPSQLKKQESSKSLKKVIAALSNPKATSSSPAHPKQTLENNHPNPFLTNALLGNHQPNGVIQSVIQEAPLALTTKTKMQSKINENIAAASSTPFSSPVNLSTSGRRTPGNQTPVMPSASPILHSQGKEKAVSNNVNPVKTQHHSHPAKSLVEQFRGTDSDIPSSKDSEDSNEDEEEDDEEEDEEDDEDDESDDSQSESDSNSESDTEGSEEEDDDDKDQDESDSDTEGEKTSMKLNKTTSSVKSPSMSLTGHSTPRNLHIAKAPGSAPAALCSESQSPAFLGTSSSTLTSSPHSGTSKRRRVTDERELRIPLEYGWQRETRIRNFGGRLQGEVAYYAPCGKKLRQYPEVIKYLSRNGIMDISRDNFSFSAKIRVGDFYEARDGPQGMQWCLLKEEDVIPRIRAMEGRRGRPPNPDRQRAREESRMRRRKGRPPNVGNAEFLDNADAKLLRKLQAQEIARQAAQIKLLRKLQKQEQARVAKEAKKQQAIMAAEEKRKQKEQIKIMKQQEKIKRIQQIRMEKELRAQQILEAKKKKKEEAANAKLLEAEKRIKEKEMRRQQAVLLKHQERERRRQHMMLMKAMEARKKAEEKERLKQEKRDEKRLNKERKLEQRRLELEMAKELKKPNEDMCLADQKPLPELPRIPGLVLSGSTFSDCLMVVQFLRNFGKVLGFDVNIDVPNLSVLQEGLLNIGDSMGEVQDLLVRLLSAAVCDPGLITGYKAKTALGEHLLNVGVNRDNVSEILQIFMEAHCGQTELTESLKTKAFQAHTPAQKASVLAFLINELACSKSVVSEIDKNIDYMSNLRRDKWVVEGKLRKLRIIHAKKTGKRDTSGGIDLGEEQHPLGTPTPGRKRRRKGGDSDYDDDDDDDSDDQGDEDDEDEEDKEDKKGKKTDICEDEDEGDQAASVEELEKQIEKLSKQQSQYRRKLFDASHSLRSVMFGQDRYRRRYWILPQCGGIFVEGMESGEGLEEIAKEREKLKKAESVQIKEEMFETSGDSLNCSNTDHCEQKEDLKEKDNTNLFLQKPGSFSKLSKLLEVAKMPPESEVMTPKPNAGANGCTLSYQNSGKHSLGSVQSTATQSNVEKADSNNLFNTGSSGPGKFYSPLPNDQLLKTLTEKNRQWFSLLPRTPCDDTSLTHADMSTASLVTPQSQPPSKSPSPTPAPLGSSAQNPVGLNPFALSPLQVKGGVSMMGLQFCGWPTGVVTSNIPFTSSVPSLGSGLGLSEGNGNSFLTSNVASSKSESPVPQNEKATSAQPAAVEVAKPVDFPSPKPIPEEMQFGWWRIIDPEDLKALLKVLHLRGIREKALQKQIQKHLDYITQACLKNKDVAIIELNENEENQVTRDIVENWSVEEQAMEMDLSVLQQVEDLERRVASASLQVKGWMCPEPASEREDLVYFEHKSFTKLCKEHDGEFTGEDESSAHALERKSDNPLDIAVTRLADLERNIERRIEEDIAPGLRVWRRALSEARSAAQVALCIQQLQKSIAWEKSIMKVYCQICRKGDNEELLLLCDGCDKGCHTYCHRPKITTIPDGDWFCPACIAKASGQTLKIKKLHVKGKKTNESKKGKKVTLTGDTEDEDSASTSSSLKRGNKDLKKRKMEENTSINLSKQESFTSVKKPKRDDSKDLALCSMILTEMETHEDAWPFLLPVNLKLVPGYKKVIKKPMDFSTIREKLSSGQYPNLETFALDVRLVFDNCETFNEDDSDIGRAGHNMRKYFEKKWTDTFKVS

[6] = molecular target: Bromodomain testis-specific protein (Homo sapiens) (UniProt Q58F21); assay: Inhibition of BRDT bromodomain 1/2 (unknown origin) by BROMOscan assay
[7] = molecular target: Bromodomain-containing protein 2 (Homo sapiens) (UniProt P25440); assay: Inhibition of human partial length BRD2 bromodomain 1/2 isoform 1 (K71 to D455 residues) by BROMOscan assay
Sequence of Bromodomain-containing protein 2 (Homo sapiens) (P25440 whole entry, looked up, the tested form may be a part, canonical isoform): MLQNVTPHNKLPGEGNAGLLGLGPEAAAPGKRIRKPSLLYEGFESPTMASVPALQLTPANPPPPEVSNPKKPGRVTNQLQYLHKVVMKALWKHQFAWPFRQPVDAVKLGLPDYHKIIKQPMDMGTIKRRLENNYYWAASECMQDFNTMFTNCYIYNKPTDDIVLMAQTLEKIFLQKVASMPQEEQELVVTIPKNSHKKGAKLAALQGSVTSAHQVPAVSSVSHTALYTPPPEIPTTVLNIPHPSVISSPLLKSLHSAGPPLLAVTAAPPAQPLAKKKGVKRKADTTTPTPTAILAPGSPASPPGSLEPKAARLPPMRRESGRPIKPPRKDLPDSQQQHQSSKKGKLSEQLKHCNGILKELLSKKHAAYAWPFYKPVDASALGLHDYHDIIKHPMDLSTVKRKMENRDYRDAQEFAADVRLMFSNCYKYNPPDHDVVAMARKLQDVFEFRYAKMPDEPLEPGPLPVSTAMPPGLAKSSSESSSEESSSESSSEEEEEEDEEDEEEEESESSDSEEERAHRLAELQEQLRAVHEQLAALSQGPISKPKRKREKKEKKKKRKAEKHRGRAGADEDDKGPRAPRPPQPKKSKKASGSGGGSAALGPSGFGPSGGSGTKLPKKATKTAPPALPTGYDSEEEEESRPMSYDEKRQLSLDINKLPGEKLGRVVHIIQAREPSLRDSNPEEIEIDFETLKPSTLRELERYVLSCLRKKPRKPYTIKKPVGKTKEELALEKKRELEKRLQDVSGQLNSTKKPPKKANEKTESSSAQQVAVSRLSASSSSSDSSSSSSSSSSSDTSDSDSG

[8] = molecular target: CREB-binding protein (Homo sapiens) (UniProt Q92793); assay: Inhibition of human partial length CREBBP (R1081 to G1197 residues) expressed in bacterial expression system by BROMOscan assay
[9] = molecular target: Bromodomain testis-specific protein (Homo sapiens) (UniProt Q58F21); assay: Inhibition of human partial length BRDT bromodomain 1 (N21 to E137 residues) expressed in bacterial expression system by BROMOscan assay
[10] = Clearance in Wistar Han rat hepatocytes assessed as per gram tissue at 0.5 uM measured up to 1 hr by LC-MS/MS analysis; type: ADME, cell-based, Hepatocyte
[11] = Chromatographic hydrophobicity index, log D of the compound in pH 7.4 ammonium acetate buffer/acetonitrile gradient by HPLC analysis; type: physicochemical
[12] = Oral bioavailability in Wistar Han rat at 3 mg/kg measured up to 24 hrs by LC-MS/MS analysis; type: ADME, organism-based; settings: in vivo
[13] = Clearance in Wistar Han rat at 1 mg/kg administered as iv infusion for 1 hr and measured up to 24 hrs by LC-MS/MS analysis; type: ADME, organism-based; settings: in vivo
Blood = assay: Inhibition of LPS-induced MCP1 production in human whole blood preincubated for 30 mins followed by LPS addition measured after 24 hrs by immuno assay; type: functional, tissue-based

- inhibition [1]: inactive
- inhibition [2]: inactive
- CL renal [3]: 0.3 mL/min/kg
- inhibition (Peregrin (Homo sapiens)): inactive
- inhibition [4]: inactive
- inhibition [5]: inactive
- inhibition [6]: inactive
- inhibition [7]: inactive
- inhibition [8]: inactive
- inhibition [9]: inactive
- CLH [10]: 1.76 mL/min/g
- CHI [11]: 3.56
- bioavailability [12]: 48%
- clearance [13]: 73 mL/min/kg
- IC50 (Blood): 50.1 nM
SMILES: CNC(=O)c1cc(C(=O)N[C@@H]2[C@@H]3COC[C@@H]32)cc2c1O[C@H](CF)[C@H]2c1ccccc1
